Measured values taken from ChEMBL document CHEMBL4425105, “Discovery of (S)-1-(1-(4-Chloro-3-fluorophenyl)-2-hydroxyethyl)-4-(2-((1-methyl-1H-pyrazol-5-yl)amino)pyrimidin-4-yl)pyridin-2(1H)-one (GDC-0994), an Extracellular Signal-Regulated Kinase 1/2 (ERK1/2) Inhibitor in Early Clinical Development” (J Med Chem, 2016).
pIC50: −log10 of the molar value.

Molecular target: Cytochrome P450 3A4 (Homo sapiens, UniProt P08684)
Test: not given
Details: not given; call rule not given here

Sequence of Cytochrome P450 3A4 (P08684 whole entry): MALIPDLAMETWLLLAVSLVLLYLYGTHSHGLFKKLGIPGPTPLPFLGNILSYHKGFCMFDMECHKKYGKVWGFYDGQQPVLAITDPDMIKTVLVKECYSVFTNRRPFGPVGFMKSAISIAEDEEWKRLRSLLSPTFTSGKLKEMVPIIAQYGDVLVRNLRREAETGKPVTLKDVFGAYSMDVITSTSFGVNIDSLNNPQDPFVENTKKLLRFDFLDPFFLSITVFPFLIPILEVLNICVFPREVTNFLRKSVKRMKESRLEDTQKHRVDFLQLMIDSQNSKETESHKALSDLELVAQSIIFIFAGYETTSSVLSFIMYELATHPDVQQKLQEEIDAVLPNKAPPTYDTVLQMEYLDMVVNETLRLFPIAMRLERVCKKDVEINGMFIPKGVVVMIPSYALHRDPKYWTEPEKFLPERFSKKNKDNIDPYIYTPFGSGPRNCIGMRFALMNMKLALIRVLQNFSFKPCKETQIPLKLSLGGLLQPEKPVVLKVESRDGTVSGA

SMILES	pIC50
Cc1cc(Nc2nccc(-c3ccn([C@H](CO)c4ccc(Cl)c(F)c4)c(=O)c3)n2)ccn1	6.47

System: not listed separately
Test: Drug level in mouse hepatocytes treated with (S)-1-(1-(4-chloro-3-fluorophenyl)-2-hydroxyethyl)-4-(2-(tetrahydro-2H-pyran-4-ylamino)pyrimidin-4-yl)pyridin-2(1H)-one measured after 3 hrs by LC/MS analysis
Type: ADME, cell-based, Hepatocyte
Details: not given

SMILES	Drug metabolism
O=C(O)CC(CCO)Nc1nccc(-c2ccn([C@H](CO)c3ccc(Cl)c(F)c3)c(=O)c2)n1 (some centres not stated)	Metabolite_Detected

System: not listed separately
Test: Drug level in cynomolgus monkey hepatocytes treated with (S)-1-(1-(4-chloro-3-fluorophenyl)-2-hydroxyethyl)-4-(2-(tetrahydro-2H-pyran-4-ylamino)pyrimidin-4-yl)pyridin-2(1H)-one measured after 3 hrs by LC/MS analysis
Type: ADME, cell-based, Macaca fascicularis, Hepatocyte
Details: not given

SMILES	Drug metabolism
O=C(O)CC(CCO)Nc1nccc(-c2ccn([C@H](CO)c3ccc(Cl)c(F)c3)c(=O)c2)n1 (some centres not stated)	Metabolite_Detected

System: not listed separately
Test: Drug metabolism in mouse hepatocytes assessed as formation of 3-(4-(1-((S)-1-(4-chloro-3-fluorophenyl)-2-hydroxyethyl)-2-oxo-1,2-dihydropyridin-4-yl)pyrimidin-2-ylamino)-5-hydroxypentanoic acid measured after 3 hrs by LC-MS/MS analysis
Type: ADME, cell-based, Hepatocyte
Details: not given

SMILES	Drug metabolism
O=c1cc(-c2ccnc(NC3CCOCC3)n2)ccn1[C@H](CO)c1ccc(Cl)c(F)c1	Metabolite_Detected

System: not listed separately
Test: Drug metabolism in dog hepatocytes assessed as formation of 3-(4-(1-((S)-1-(4-chloro-3-fluorophenyl)-2-hydroxyethyl)-2-oxo-1,2-dihydropyridin-4-yl)pyrimidin-2-ylamino)-5-hydroxypentanoic acid measured after 3 hrs by LC-MS/MS analysis
Type: ADME, cell-based, Canis lupus familiaris, Hepatocyte
Details: not given

SMILES	Drug metabolism
O=c1cc(-c2ccnc(NC3CCOCC3)n2)ccn1[C@H](CO)c1ccc(Cl)c(F)c1	Metabolite_Detected

System: not listed separately
Test: Drug metabolism in human hepatocytes assessed as formation of 3-(4-(1-((S)-1-(4-chloro-3-fluorophenyl)-2-hydroxyethyl)-2-oxo-1,2-dihydropyridin-4-yl)pyrimidin-2-ylamino)-5-hydroxypentanoic acid measured after 3 hrs by LC-MS/MS analysis
Type: ADME, cell-based, Hepatocyte
Details: not given

SMILES	Drug metabolism
O=c1cc(-c2ccnc(NC3CCOCC3)n2)ccn1[C@H](CO)c1ccc(Cl)c(F)c1	Metabolite_Detected

System: not listed separately
Test: Permeability from apical to basolateral side of MDCK cells
Type: ADME, cell-based, Canis lupus familiaris
Details: dog, read-out: permeability

SMILES	Papp A→B
O=c1cc(-c2ccnc(NC3CCOCC3)n2)ccn1[C@H](CO)c1ccc(Cl)c(F)c1	3.9 ×10⁻⁶ cm/s

Molecular target: Mitogen-activated protein kinase 3 (Homo sapiens, UniProt P27361)
Sequence (P27361 whole entry): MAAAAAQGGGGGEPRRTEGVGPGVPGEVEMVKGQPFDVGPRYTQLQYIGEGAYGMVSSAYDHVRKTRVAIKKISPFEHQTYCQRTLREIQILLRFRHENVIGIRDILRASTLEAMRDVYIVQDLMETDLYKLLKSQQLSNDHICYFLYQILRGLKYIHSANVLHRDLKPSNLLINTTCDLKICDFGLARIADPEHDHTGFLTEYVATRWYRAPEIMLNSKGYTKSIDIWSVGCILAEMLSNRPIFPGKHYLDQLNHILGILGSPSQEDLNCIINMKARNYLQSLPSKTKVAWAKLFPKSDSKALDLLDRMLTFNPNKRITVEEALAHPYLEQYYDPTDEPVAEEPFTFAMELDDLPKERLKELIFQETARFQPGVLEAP
Test: not given
Details: not given

SMILES	pIC50
Cn1cc(Nc2nccc(-c3ccn([C@H](CO)c4ccc(Cl)c(F)c4)c(=O)c3)n2)c(C(F)(F)F)n1	6.26
Cc1cc(Nc2nccc(-c3ccn([C@H](CO)c4ccc(Cl)c(F)c4)c(=O)c3)n2)ccn1	8.41
CCn1cc(Nc2nccc(-c3ccn([C@H](CO)c4ccc(Cl)c(F)c4)c(=O)c3)n2)c(C)n1	7.74
Cn1ccc(Nc2nccc(-c3ccn([C@H](CO)c4ccc(Cl)c(F)c4)c(=O)c3)n2)n1	7.07
CCc1nn(C)cc1Nc1nccc(-c2ccn([C@H](CO)c3ccc(Cl)c(F)c3)c(=O)c2)n1	7.37
CCn1nc(C)cc1Nc1nccc(-c2ccn([C@H](CO)c3ccc(Cl)c(F)c3)c(=O)c2)n1	6.82
Cn1nc(C(F)(F)F)cc1Nc1nccc(-c2ccn([C@H](CO)c3ccc(Cl)c(F)c3)c(=O)c2)n1	7.13
Cc1cnn(C)c1Nc1nccc(-c2ccn([C@H](CO)c3ccc(Cl)c(F)c3)c(=O)c2)n1	5.97
Cc1n[nH]c(C)c1Nc1nccc(-c2ccn([C@H](CO)c3ccc(Cl)c(F)c3)c(=O)c2)n1	6.29
Cc1n[nH]cc1Nc1nccc(-c2ccn([C@H](CO)c3ccc(Cl)c(F)c3)c(=O)c2)n1	8.42
CC(C)n1cc(Nc2nccc(-c3ccn([C@H](CO)c4ccc(Cl)c(F)c4)c(=O)c3)n2)cn1	7.72
CCn1nccc1Nc1nccc(-c2ccn([C@H](CO)c3ccc(Cl)c(F)c3)c(=O)c2)n1	7.59
Cn1cc(Nc2nccc(-c3ccn([C@H](CO)c4ccc(Cl)c(F)c4)c(=O)c3)n2)cn1	8.10
CCc1cc(Nc2nccc(-c3ccn([C@H](CO)c4ccc(Cl)c(F)c4)c(=O)c3)n2)n(C)n1	7.57
Cc1cc(Nc2nccc(-c3ccn([C@H](CO)c4ccc(Cl)c(F)c4)c(=O)c3)n2)n(C)n1	7.70
O=c1cc(-c2ccnc(Nc3cc[nH]n3)n2)ccn1[C@H](CO)c1ccc(Cl)c(F)c1	5.02
CCn1cc(Nc2nccc(-c3ccn([C@H](CO)c4ccc(Cl)c(F)c4)c(=O)c3)n2)cn1	8.30
Cc1nn(C)cc1Nc1nccc(-c2ccn([C@H](CO)c3ccc(Cl)c(F)c3)c(=O)c2)n1	7.89
Cc1c(Nc2nccc(-c3ccn([C@H](CO)c4ccc(Cl)c(F)c4)c(=O)c3)n2)cnn1C	7.21

System: HCT-116
Test: Antitumor activity against human HCT116 cells xenografted in mouse assessed as tumor growth inhibition at 7.5 mg/kg, po qd measured after 21 days relative to vehicle-control
Type: functional
Details: HCT-116, po, 504 h

SMILES	inhibition in vivo at 7.5 mg/kg
O=C(c1ccc(F)c(F)c1Nc1ccc(I)cc1F)N1CC(O)([C@@H]2CCCCN2)C1 [COBIMETINIB]	58%

System: Cytochrome P450
Test: Inhibition of CYP450 (unknown origin)
Type: ADME, protein assay
Details: human

SMILES	inhibition (INH)
Cn1cc(Nc2nccc(-c3ccn([C@H](CO)c4ccc(Cl)c(F)c4)c(=O)c3)n2)c(C(F)(F)F)n1	Not Active
CCn1cc(Nc2nccc(-c3ccn([C@H](CO)c4ccc(Cl)c(F)c4)c(=O)c3)n2)c(C)n1	Not Active
CCc1nn(C)cc1Nc1nccc(-c2ccn([C@H](CO)c3ccc(Cl)c(F)c3)c(=O)c2)n1	Not Active
Cc1n[nH]c(C)c1Nc1nccc(-c2ccn([C@H](CO)c3ccc(Cl)c(F)c3)c(=O)c2)n1	Not Active
Cc1n[nH]cc1Nc1nccc(-c2ccn([C@H](CO)c3ccc(Cl)c(F)c3)c(=O)c2)n1	Not Active
CC(C)n1cc(Nc2nccc(-c3ccn([C@H](CO)c4ccc(Cl)c(F)c4)c(=O)c3)n2)cn1	Not Active
Cn1cc(Nc2nccc(-c3ccn([C@H](CO)c4ccc(Cl)c(F)c4)c(=O)c3)n2)cn1	Not Active
CCn1cc(Nc2nccc(-c3ccn([C@H](CO)c4ccc(Cl)c(F)c4)c(=O)c3)n2)cn1	Not Active
Cc1nn(C)cc1Nc1nccc(-c2ccn([C@H](CO)c3ccc(Cl)c(F)c3)c(=O)c2)n1	Not Active
Cc1c(Nc2nccc(-c3ccn([C@H](CO)c4ccc(Cl)c(F)c4)c(=O)c3)n2)cnn1C	Not Active

Molecular target: Mitogen-activated protein kinase 1 (Homo sapiens, UniProt P28482)
Sequence (P28482 whole entry): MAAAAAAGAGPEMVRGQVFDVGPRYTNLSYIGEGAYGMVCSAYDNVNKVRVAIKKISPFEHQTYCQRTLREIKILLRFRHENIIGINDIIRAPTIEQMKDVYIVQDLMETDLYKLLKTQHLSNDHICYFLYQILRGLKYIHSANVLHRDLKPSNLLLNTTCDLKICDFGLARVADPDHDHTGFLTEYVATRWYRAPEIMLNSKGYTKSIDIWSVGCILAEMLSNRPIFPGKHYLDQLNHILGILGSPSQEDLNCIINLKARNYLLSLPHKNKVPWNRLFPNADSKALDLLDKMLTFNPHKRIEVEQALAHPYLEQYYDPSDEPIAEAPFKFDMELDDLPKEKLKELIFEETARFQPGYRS
Test: not given
Details: not given

SMILES	pIC50
Cn1cc(Nc2nccc(-c3ccn([C@H](CO)c4ccc(Cl)c(F)c4)c(=O)c3)n2)c(C(F)(F)F)n1	6.54
Cc1cc(Nc2nccc(-c3ccn([C@H](CO)c4ccc(Cl)c(F)c4)c(=O)c3)n2)ccn1	9.03
Cn1ccc(Nc2nccc(-c3ccn([C@H](CO)c4ccc(Cl)c(F)c4)c(=O)c3)n2)n1	7.43
CCc1nn(C)cc1Nc1nccc(-c2ccn([C@H](CO)c3ccc(Cl)c(F)c3)c(=O)c2)n1	7.64
CCn1nc(C)cc1Nc1nccc(-c2ccn([C@H](CO)c3ccc(Cl)c(F)c3)c(=O)c2)n1	7.05
Cn1nc(C(F)(F)F)cc1Nc1nccc(-c2ccn([C@H](CO)c3ccc(Cl)c(F)c3)c(=O)c2)n1	7.28
Cc1cnn(C)c1Nc1nccc(-c2ccn([C@H](CO)c3ccc(Cl)c(F)c3)c(=O)c2)n1	6.31
Cc1n[nH]c(C)c1Nc1nccc(-c2ccn([C@H](CO)c3ccc(Cl)c(F)c3)c(=O)c2)n1	6.62
Cc1n[nH]cc1Nc1nccc(-c2ccn([C@H](CO)c3ccc(Cl)c(F)c3)c(=O)c2)n1	9.05
CC(C)n1cc(Nc2nccc(-c3ccn([C@H](CO)c4ccc(Cl)c(F)c4)c(=O)c3)n2)cn1	8.00
CCn1nccc1Nc1nccc(-c2ccn([C@H](CO)c3ccc(Cl)c(F)c3)c(=O)c2)n1	7.80
Cn1cc(Nc2nccc(-c3ccn([C@H](CO)c4ccc(Cl)c(F)c4)c(=O)c3)n2)cn1	8.39
CCc1cc(Nc2nccc(-c3ccn([C@H](CO)c4ccc(Cl)c(F)c4)c(=O)c3)n2)n(C)n1	7.77
O=c1cc(-c2ccnc(Nc3cc[nH]n3)n2)ccn1[C@H](CO)c1ccc(Cl)c(F)c1	5.25
CCn1cc(Nc2nccc(-c3ccn([C@H](CO)c4ccc(Cl)c(F)c4)c(=O)c3)n2)cn1	8.74
Cc1c(Nc2nccc(-c3ccn([C@H](CO)c4ccc(Cl)c(F)c4)c(=O)c3)n2)cnn1C	7.54

System: not listed separately
Test: Drug metabolism in cynomolgus monkey hepatocytes assessed as formation of 3-(4-(1-((S)-1-(4-chloro-3-fluorophenyl)-2-hydroxyethyl)-2-oxo-1,2-dihydropyridin-4-yl)pyrimidin-2-ylamino)-5-hydroxypentanoic acid measured after 3 hrs by LC/MS analysis
Type: ADME, cell-based, Macaca fascicularis, Hepatocyte
Details: not given

SMILES	Drug metabolism
O=c1cc(-c2ccnc(NC3CCOCC3)n2)ccn1[C@H](CO)c1ccc(Cl)c(F)c1	Metabolite_Detected

System: not listed separately
Test: Drug metabolism in rat hepatocytes assessed as formation of 3-(4-(1-((S)-1-(4-chloro-3-fluorophenyl)-2-hydroxyethyl)-2-oxo-1,2-dihydropyridin-4-yl)pyrimidin-2-ylamino)-5-hydroxypentanoic acid measured after 3 hrs by LC-MS/MS analysis
Type: ADME, cell-based, Hepatocyte
Details: not given

SMILES	Drug metabolism
O=c1cc(-c2ccnc(NC3CCOCC3)n2)ccn1[C@H](CO)c1ccc(Cl)c(F)c1	Metabolite_Detected

System: not listed separately
Test: Drug level in rat hepatocytes treated with (S)-1-(1-(4-chloro-3-fluorophenyl)-2-hydroxyethyl)-4-(2-(tetrahydro-2H-pyran-4-ylamino)pyrimidin-4-yl)pyridin-2(1H)-one measured after 3 hrs by LC/MS analysis
Type: ADME, cell-based, Hepatocyte
Details: not given

SMILES	Drug metabolism
O=C(O)CC(CCO)Nc1nccc(-c2ccn([C@H](CO)c3ccc(Cl)c(F)c3)c(=O)c2)n1 (some centres not stated)	Metabolite_Detected

System: not listed separately
Test: Drug level in human hepatocytes treated with (S)-1-(1-(4-chloro-3-fluorophenyl)-2-hydroxyethyl)-4-(2-(tetrahydro-2H-pyran-4-ylamino)pyrimidin-4-yl)pyridin-2(1H)-one measured after 3 hrs by LC/MS analysis
Type: ADME, cell-based, Hepatocyte
Details: not given

SMILES	Drug metabolism
O=C(O)CC(CCO)Nc1nccc(-c2ccn([C@H](CO)c3ccc(Cl)c(F)c3)c(=O)c2)n1 (some centres not stated)	Metabolite_Detected

System: not listed separately
Test: in vivo
Details: CD-1, mouse, po
Description: Oral bioavailability in CD-1 mouse

SMILES	bioavailability
Cc1nn(C)cc1Nc1nccc(-c2ccn([C@H](CO)c3ccc(Cl)c(F)c3)c(=O)c2)n1	95%

System: not listed separately
Test: Drug level in dog hepatocytes treated with (S)-1-(1-(4-chloro-3-fluorophenyl)-2-hydroxyethyl)-4-(2-(tetrahydro-2H-pyran-4-ylamino)pyrimidin-4-yl)pyridin-2(1H)-one measured after 3 hrs by LC/MS analysis
Type: ADME, cell-based, Canis lupus familiaris, Hepatocyte
Details: not given

SMILES	Drug metabolism
O=C(O)CC(CCO)Nc1nccc(-c2ccn([C@H](CO)c3ccc(Cl)c(F)c3)c(=O)c2)n1 (some centres not stated)	Metabolite_Detected

System: Mus musculus
Test: T>IC50 for inhibition of p90RSK phosphorylation in CD-1 mouse at 10 mg/kg, po
Details: not given

SMILES	Time
O=c1cc(-c2ccnc(NC3CCOCC3)n2)ccn1[C@H](CO)c1ccc(Cl)c(F)c1	8 h

System: not listed separately
Test: Fraction unbound in mouse plasma
Type: ADME, cell-free
Details: not given

SMILES	fraction unbound
O=c1cc(-c2ccnc(NC3CCOCC3)n2)ccn1[C@H](CO)c1ccc(Cl)c(F)c1	0.058

Species on record: Mus musculus
Test: not given
Details: not given

SMILES	Cp
O=c1cc(-c2ccnc(NC3CCOCC3)n2)ccn1[C@H](CO)c1ccc(Cl)c(F)c1	200 nM
